According to EP2626073A1, “Compound for use in the prevention and/or treatment of a neurogenerative disease or a disease involving an activation of phosphodiesterase-4 (PDE4)” (Harmonic Pharma, priority 2012, dated 2013):

What was measured:
Rat cortical neurons = experiment: Aβ oligomer-induced neuronal death, MTT assay; assay type: cell-based, Wistar rat; settings: 24 h
Description: Cell culture: Cortical neurons from embryonic day 16-17 Wistar rat fetuses were prepared as follows. Dissociated cortical cells were plated at 4.5-5.0 10^4 cells/cm^2 in plastic dishes precoated with 1.5 mg/mL polyornithine (Sigma). Cells were cultured in a chemically defined Dulbecco's modified eagle's/F12 medium free of serum (Gibco) and supplemented with hormones, proteins and salts. Cultures were kept at 35°C in a humidified 5% CO2 atmosphere, and at 6-7 DIV, cortical population was determined to be at least 97% neuronal by immunostaining.
Preparation of low-n β-amyloid (Aβ) oligomers: The peptide used is Aβ1-42 from Bachem (ref H1368, batch number: 1025459). The oligomeric preparation contains a mixture of stable dimers, trimers and tetramers of Aβ1-42 peptide, as well as monomeric forms of the peptide.
Preparation of tivozanib solution: Tivozanib was dissolved in DMSO. A stock solution (10 mM DMSO) was prepared, and aliquots were stored at -20 °C before use.
Treatment and measurement of cell viability: All experiments were done in 48 well plates. […] Following 24h of incubation, neuronal viability was monitored using the MTT assay (Garcia et al., The Journal of Neuroscience, June 2,2010, 30(22), 7516-7527; Desbene et al., Neurobiology of Aging, 33 (2012) 1123.e17-1123.e-29). Data were obtained from one experiment with 4 determinations each and expressed as means + SD.

[1] = system: cAMP level in HEK293 cells; experiment: Measurement of cAMP level by ELISA; assay type: cell-based
Description: Measurement of cAMP level: HEK293 cells were cultured in DMEM medium containing 10 % FCS. Cells were plated in 12-well plates at a density of 400.000 cells per well and cultured for 24h at 37°C in a humidified 6% CO2 atmosphere. Cells were then incubated for 1 h with increasing concentrations of tivozanib and then treated with vehicle or 25 µM forskolin for 15 minutes. Following washing steps and cell lysis, cellular level of cAMP level was monitored using an ELISA assay (Cyclic AMP XP assay kit - Cell signaling). Data are from 2 experiments performed in duplicate. Data are represented as fold increase of cAMP as compared to experiment using forskolin only, designed as 1.0 (figure 7).
Effects of tivozanib on cAMP level in HEK293 cells: In order to evaluate the potential effect of tivozanib on PDE4 activity in living cells, the HEK293 cell line was used. These cells are widely used for identification and validation of PDE4 modulators in mild as well as high throughput screening assays. Indeed, the control of cAMP level and hydrolysis in HEK293 cells are predominantly supported by PDE4.

PDE4 = PDE4 isolated enzyme two-step radioenzymatic PDE assay; assay type: biochemical; settings: 1 µM cAMP substrate, 30°C, 30 min; read-out: inhibition concentration value (IC50)
Male C57BL/6 mice = experiment: Y-maze test of spatial working memory after icv Aβ oligomers; assay type: in vivo
Description: Animals: All animal experiments were carried out according to the National Institute of Health (NIH) guidelines for the care and use of laboratory animals, and approved by the French Ministry for Research and Technology. Animals were housed at a standard temperature (22±1°C) and in a light-controlled environment (lights on from 7 am to 8 pm) with ad libitum access to food and water. Upon arrival, Male C57BL/6 mice (C57BL/6J Rj, ref SC-CJ-12w-M, Janvier, France) were group housed. From 1 week before the experiment started and until the end of the experiment, mice were individually housed. Animals were monitored twice-a-day by laboratory personnel (8 am and 4 pm). […]
Surgery and intracerebroventricular (icv) infusion of low-n Aβ oligomers: Immediate spatial working memory performance was assessed by recording spontaneous alternation behavior in a Y-maze system, as previously described (Youssef et al., Neurobiology of Aging, 29 (2008) 1319-1333; Garcia et al., The Journal of Neuroscience, June 2,2010, 30(22) 7516-7527). […]
Investigation of the spatial working memory - Y maze test: Immediate spatial working memory performance was assessed by recording spontaneous alternation behavior in a Y-maze system, as previously described (Youssef et al., 2008; Garcia et al., 2010, see references above). […]

IC50 (PDE4) [µM]	Compound	decrease of cell viability (Rat cortical neurons; 1 µM Aβ1-42 oligomers alone, figure 6B CTRL) [%]	cAMP level ([1]; absence of forskolin, increasing concentrations up to 50 µM, 1 h)	cAMP level ([1]; presence of 25 µM forskolin for 15 minutes, increasing concentrations, 1 h pre-incubation)	behavior and spontaneous alternation performance (Male C57BL/6 mice; group C: 30 mg/kg/day per os, vehicle icv, test day +4)	spatial working memory (spontaneous alternation) (Male C57BL/6 mice; group D: 30 mg/kg/day per os day -2 to +4, Aβ oligomers 50 pmol icv day 0, test day +4)	Aβ oligomer-induced cell death (cell viability, MTT) (Rat cortical neurons; tivozanib up to 10 µM added simultaneously with 1 µM Aβ1-42 oligomers)
	Aβ1-42 oligomers	~40					
4.8	COc1cc2nccc(Oc3ccc(NC(=O)Nc4cc(C)on4)c(Cl)c3)c2cc1OC [tivozanib, N-{2-chloro-4-[(6,7-dimethoxy-4-quinolyl)oxy]-phenyl}-N'-(5-methyl-3-isoxazolyl)urea]		did not result in an increase of cAMP level	dose-response accumulation of cAMP	displayed a normal behavior	significantly improved spatial working memory	protected cells towards Aβ oligomer-induced cell death
